According to US20030162662A1, “2-Phenyl-2h-pyridazine-3-ones” (priority 2000, published 2003):

Experiments:
[1] = system: BIDPI (common blackjack); assay: Greenhouse herbicidal action, postemergence treatment, BIDPI; assay type: in vivo
From the text: (§1) The herbicidal action of the 2-phenylpyridazin-3-one compounds of the formula I could be shown by means of greenhouse experiments: […]
(§2) The cultivation containers used were plastic pots containing loamy sand with approximately 3.0% of humus as a substrate. The seeds of the test plants were sown separately according to species.
(§3) For the purpose of postemergence treatment, the test plants were first raised up to a growth height of 3 to 15 cm, depending on growth form, and then treated with the active compounds suspended or emulsified in water. For this, the test plants were either sown directly and raised in the same containers or they were first raised separately as seedlings and transplanted into the experimental containers a few days before the treatment. The application rate for the postemergence treatment was 31.2 or 15.6 g of a.S./ha.
(§4) The plants were kept species-specifically at temperatures from 10-25° C. or 20-35° C. The experimental period extended over 2 to 4 weeks. During this time, the plants were tended, and their reaction to the individual treatments was assessed.
(§5) Assessment was carried out on a scale from 0 to 100. 100 here means no emergence of the plants or complete destruction of at least the above-ground parts and 0 means no damage or normal course of growth.
(§6) The plants used in the greenhouse experiments were made up of the following species: […]

[2] = system: SETFA (Faber's foxtail); assay: Greenhouse herbicidal action, postemergence treatment, SETFA; assay type: in vivo
From the text: as §1, §2, §3, §4, §5, §6

melting point [°C] | Structure (SMILES) | herbicidal action against BIDPI (scale 0 to 100; 100 = complete destruction, 0 = no damage) ([1]; application rate 15.6 g/ha) [%] | herbicidal action against BIDPI (scale 0 to 100; 100 = complete destruction, 0 = no damage) ([1]; application rate 31.2 g/ha) [%] | herbicidal action against SETFA (scale 0 to 100; 100 = complete destruction, 0 = no damage) ([2]; application rate 15.6 g/ha) [%] | herbicidal action against SETFA (scale 0 to 100; 100 = complete destruction, 0 = no damage) ([2]; application rate 31.2 g/ha) [%]
 | CCOC(=O)C=Cc1cc(-n2ncc(C(F)(F)F)c(C)c2=O)c(F)cc1Cl [Example I-658 of WO 97/07104, reference compound] | 30 | 30 | 80 | 
 | CCOC(=O)C(Cl)=Cc1cc(-n2ncc(C(F)(F)F)c(C)c2=O)c(F)cc1Cl [Ia.3, 2-[4-Chloro-2-fluoro-5-(2-ethoxycarbonyl-2-chloroethen-1-yl)-phenyl]-4-methyl-5-trifluoromethyl-2H-pyridazin-3-one] | 80 | 100 | 100 | 100
121 to 123 | COC(=O)/C(Cl)=C/c1cc(-n2ncc(C(F)(F)F)c(C)c2=O)c(F)cc1Cl [Ib.2] |  |  |  | 
128 to 129 | Cc1c(C(F)(F)F)cnn(-c2cc(/C=C(\Cl)C(N)=O)c(Cl)cc2F)c1=O [Ib.30] |  |  |  | 
